# Literature values, collected in paper PMC6429159, “Evolution and Biological Evaluation of Matrinic Derivatives with Amantadine Fragments As New Anti-Influenza Virus Agents” (Molecules, 2019).
# Test system: influenza virus A/hanfang/359/95 (H3N2)
# Design: method as in PMID 29473520
# Details: lead 1, value of previous study; read-out: Anti-H3N2 IC50; cited from earlier work
smiles,measurement,value
"CCCCC1C2CCCN3CCCC(CN1Cc1ccc(C(=O)O)cc1)C23 (stereo not shown) [Compound 1, 12N-p-carboxybenzyl matrinic butane]",IC50,16.2 µM
